Laboratory results: patent US20250171457A1, “NITROGEN-CONTAINING HETEROCYCLIC COMPOUND HAVING NRF2 ACTIVATION EFFECT” (CHUGAI SEIYAKU KABUSHIKI KAISHA, priority 2022, published 2025)

System: Nrf2 transcriptional activity (pARE-Luc reporter) in HepG2 cells
Assay: In vitro Nrf2 transcriptional activity measurement by ARE-dependent reporter assay in HepG2 cell
Format: cell-based, human
Settings: Homo sapiens; HepG2 cells transfected with pARE-Luc, 4 hours at 37° C.; luciferase activity of Example 1-54 or Example 17-23 at 3.75 μM defined as 100%
Method in brief: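 HepG2 cells transfected with pGL4.37 (pARE-Luc), replated onto compound and incubated 4 h at 37° C; luciferase read by Bright-Glo luminescence. Response normalized to 100% set by a reference compound at 3.75 μM; EC50 from dose-response curve.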

Row | Compound | EC50
1 | O=C(O)c1cc(F)c(-c2cccc3c2OCN(C(=O)c2c(Cl)cc(N4CCOCC4)cc2Cl)C3)cc1N1C2CCC1COC2 [Compound 4-19, 4-[3-(2,6-Dichloro-4-morpholin-4-ylbenzoyl)-2,4-dihydro-1,3-benzoxazin-8-yl]-5-fluoro-2-(3-oxa-8-azabicyclo[3.2.1]octan-8-yl)benzoic acid] | 2.9 nM
2 | O=C(O)c1ccc(-c2cccc3c2OCN(C(=O)c2c(Cl)cc(N4CC5(COC5)C4)cc2Cl)C3)cc1N1CCOCC1 [Compound 4-21, 4-[3-[2,6-Dichloro-4-(2-oxa-6-azaspiro[3.3]heptan-6-yl)benzoyl]-2,4-dihydro-1,3-benzoxazin-8-yl]-2-morpholin-4-ylbenzoic acid] | 7.4 nM
3 | COCCN(C)c1cc(Cl)c(C(=O)N2COc3c(cccc3-c3cc(N4CCOCC4)c(C(=O)O)cc3F)C2)c(Cl)c1 [Compound 4-23, 4-[3-[2,6-Dichloro-4-[2-methoxyethyl(methyl)amino]benzoyl]-2,4-dihydro-1,3-benzoxazin-8-yl]-5-fluoro-2-morpholin-4-ylbenzoic acid] | 1.5 nM
4 | COCCN1CCCN(c2cc(Cl)c(C(=O)N3COc4c(cccc4-c4cc(N5CCOCC5)c(C(=O)O)cc4F)C3)c(Cl)c2)CC1 [Compound 4-25, 4-[3-[2,6-Dichloro-4-[4-(2-methoxyethyl)-1,4-diazepan-1-yl]benzoyl]-2,4-dihydro-1,3-benzoxazin-8-yl]-5-fluoro-2-morpholin-4-ylbenzoic acid] | 1.9 nM
5 | CC(C)(C)OC(=O)N1CCN(c2cc(Cl)c(C(=O)N3COc4c(cccc4-c4cc(N5CCOCC5)c(C(=O)O)cc4F)C3)c(Cl)c2)CC1 [Compound 4-29, 4-[3-[2,6-Dichloro-4-[4-[(2-methylpropan-2-yl)oxycarbonyl]piperazin-1-yl]benzoyl]-2,4-dihydro-1,3-benzoxazin-8-yl]-5-fluoro-2-morpholin-4-ylbenzoic acid] | 2.1 nM
6 | Cc1cc(-c2cccc3c2OCN(C(=O)c2c(Cl)cc(N4CCOCC4)cc2Cl)C3)cc(N2CCOCC2)c1C(=O)O [Compound 4-32, 4-[3-(2,6-Dichloro-4-morpholin-4-ylbenzoyl)-2,4-dihydro-1,3-benzoxazin-8-yl]-2-methyl-6-morpholin-4-ylbenzoic acid] | 6.9 nM
7 | O=C(O)c1cc(F)c(-c2cccc3c2OCN(C(=O)c2ccc(N4CC5(COC5)C4)cc2Cl)C3)cc1N1CCOCC1 [Compound 4-33, 4-[3-[2-Chloro-4-(2-oxa-6-azaspiro[3.3]heptan-6-yl)benzoyl]-2,4-dihydro-1,3-benzoxazin-8-yl]-5-fluoro-2-morpholin-4-ylbenzoic acid] | 5.1 nM
8 | O=C(O)c1cc(F)c(-c2cccc3c2OCN(C(=O)c2c(Cl)cc(OC[C@H]4CCCO4)cc2Cl)C3)cc1N1C2CCC1COC2 [Compound 4-34, 4-[3-[2,6-Dichloro-4-[[(2R)-oxolan-2-yl]methoxy]benzoyl]-2,4-dihydro-1,3-benzoxazin-8-yl]-5-fluoro-2-(3-oxa-8-azabicyclo[3.2.1]octan-8-yl)benzoic acid] | 3.8 nM
9 | CC(C)(O)CCOc1cc(Cl)c(C(=O)N2COc3c(cccc3-c3cc(N4C5CCC4COC5)c(C(=O)O)cc3F)C2)c(Cl)c1 [Compound 4-35, 4-[3-[2,6-Dichloro-4-(3-hydroxy-3-methylbutoxy)benzoyl]-2,4-dihydro-1,3-benzoxazin-8-yl]-5-fluoro-2-(3-oxa-8-azabicyclo[3.2.1]octan-8-yl)benzoic acid] | 20 nM
10 | O=C(O)c1cc(F)c(-c2cccc3c2OCN(C(=O)c2c(Cl)cc(OC[C@H]4CCOC4)cc2Cl)C3)cc1N1C2CCC1COC2 [Compound 4-38, 4-[3-[2,6-Dichloro-4-[[(3S)-oxolan-3-yl]methoxy]benzoyl]-2,4-dihydro-1,3-benzoxazin-8-yl]-5-fluoro-2-(3-oxa-8-azabicyclo[3.2.1]octan-8-yl)benzoic acid] | 5.1 nM
11 | CCOc1cc(Cl)c(C(=O)N2COc3c(cccc3-c3cc(N4C5CCC4COC5)c(C(=O)O)cc3F)C2)c(Cl)c1 [Compound 4-39, 4-[3-(2,6-Dichloro-4-ethoxybenzoyl)-2,4-dihydro-1,3-benzoxazin-8-yl]-5-fluoro-2-(3-oxa-8-azabicyclo[3.2.1]octan-8-yl)benzoic acid] | 6.9 nM
12 | COc1cc(Cl)c(C(=O)N2COc3c(cccc3-c3cc(N4C5CCC4COC5)c(C(=O)O)cc3F)C2)c(Cl)c1 [Compound 4-40, 4-[3-(2,6-Dichloro-4-methoxybenzoyl)-2,4-dihydro-1,3-benzoxazin-8-yl]-5-fluoro-2-(3-oxa-8-azabicyclo[3.2.1]octan-8-yl)benzoic acid] | 8.9 nM
13 | O=C(O)c1cc(F)c(-c2cccc3c2OCN(C(=O)c2c(Cl)cc(OCC4CCOCC4)cc2Cl)C3)cc1N1C2CCC1COC2 [Compound 4-41, 4-[3-[2,6-Dichloro-4-(oxan-4-ylmethoxy)benzoyl]-2,4-dihydro-1,3-benzoxazin-8-yl]-5-fluoro-2-(3-oxa-8-azabicyclo[3.2.1]octan-8-yl)benzoic acid] | 4.7 nM
14 | O=C(O)c1cc(F)c(-c2cccc3c2OCN(C(=O)c2c(Cl)cc(OC[C@@H]4COCCO4)cc2Cl)C3)cc1N1C2CCC1COC2 [Compound 4-42, 4-[3-[2,6-Dichloro-4-[[(2S)-1,4-dioxan-2-yl]methoxy]benzoyl]-2,4-dihydro-1,3-benzoxazin-8-yl]-5-fluoro-2-(3-oxa-8-azabicyclo[3.2.1]octan-8-yl)benzoic acid] | 4.4 nM
15 | O=C(O)c1ccc(-c2cccc3c2OCN(C(=O)c2c(Cl)cc(OCCCCO)cc2Cl)C3)cc1N1CCOCC1 [Compound 4-43, 4-[3-[2,6-Dichloro-4-(4-hydroxybutoxy)benzoyl]-2,4-dihydro-1,3-benoxazin-8-yl]-2-morpholin-4-ylbenzoic acid] | 7.4 nM
16 | CN(C)CCOc1cc(Cl)c(C(=O)N2COc3c(cccc3-c3ccc(C(=O)O)c(N4CCOCC4)c3)C2)c(Cl)c1 [Compound 4-44, 4-[3-[2,6-Dichloro-4-[2-(dimethylamino)ethoxy]benzoyl]-2,4-dihydro-1,3-benzoxazin-8-yl]-2-morpholin-4-ylbenzoic acid] | 16 nM
17 | CC(C)(O)CCOc1cc(Cl)c(C(=O)N2COc3c(cccc3-c3ccc(C(=O)O)c(N4CCOCC4)c3)C2)c(Cl)c1 [Compound 4-45, 4-[3-[2,6-Dichloro-4-(3-hydroxy-3-methylbutoxy)benzoyl]-2,4-dihydro-1,3-benzoxazin-8-yl]-2-morpholin-4-ylbenzoic acid] | 10 nM
18 | Cn1cc(Oc2cc(Cl)c(C(=O)N3COc4c(cccc4-c4cc(N5CCOCC5)c(C(=O)O)cc4F)C3)c(Cl)c2)cn1 [Compound 4-46, 4-[3-[2,6-Dichloro-4-(1-methylpyrazol-4-yl)oxybenzoyl]-2,4-dihydro-1,3-benzoxazin-8-yl]-5-fluoro-2-morpholin-4-ylbenzoic acid] | 14 nM

Results, then the compound that gave them:

Row | EC50 | Compound
19 | 3 nM | O=C(O)c1ccc(-c2cccc3c2OCN(C(=O)c2c(Cl)cc(N4CC[C@@H](O)C4)cc2Cl)C3)cc1N1CCOCC1 [Compound 4-20, 4-[3-[2,6-Dichloro-4-[(3R)-3-hydroxypyrrolidin-1-yl]benzoyl]-2,4-dihydro-1,3-benzoxazin-8-yl]-2-morpholin-4-ylbenzoic acid]
20 | 1.8 nM | CN1CCCN(c2cc(Cl)c(C(=O)N3COc4c(cccc4-c4cc(N5CCOCC5)c(C(=O)O)cc4F)C3)c(Cl)c2)CC1 [Compound 4-22, 4-[3-[2,6-Dichloro-4-(4-methyl-1,4-diazepan-1-yl)benzoyl]-2,4-dihydro-1,3-benzoxazin-8-yl]-5-fluoro-2-morpholin-4-ylbenzoic acid]
21 | 2.7 nM | O=C(O)c1cc(F)c(-c2cccc3c2OCN(C(=O)c2c(Cl)cc(N4CC5COCC5C4)cc2Cl)C3)cc1N1CCOCC1 (centres unmarked) [Compound 4-24, 4-[3-[4-(1,3,3a,4,6,6a-Hexahydrofuro[3,4-c]pyrrol-5-yl)-2,6-dichlorobenzoyl]-2,4-dihydro-1,3-benzoxazin-8-yl]-5-fluoro-2-morpholin-4-ylbenzoic acid]
22 | 8.2 nM | O=C(O)c1cc(F)c(-c2cccc3c2OCN(C(=O)c2c(Cl)cc(N4CCC5(CCOCC5)C4)cc2Cl)C3)cc1N1CCOCC1 [Compound 4-26, 4-[3-[2,6-Dichloro-4-(8-oxa-2-azaspiro[4.5]decan-2-yl)benzoyl]-2,4-dihydro-1,3-benzoxazin-8-yl]-5-fluoro-2-morpholin-4-ylbenzoic acid]
23 | 1.1 nM | O=C(O)c1cc(F)c(-c2cccc3c2OCN(C(=O)c2c(Cl)cc(N4CCC(CO)CC4)cc2Cl)C3)cc1N1CCOCC1 [Compound 4-27, 4-[3-[2,6-Dichloro-4-[4-(hydroxymethyl)piperidin-1-yl]benzoyl]-2,4-dihydro-1,3-benzoxazin-8-yl]-5-fluoro-2-morpholin-4-ylbenzoic acid]
24 | 1.6 nM | O=C(O)c1cc(F)c(-c2cccc3c2OCN(C(=O)c2c(Cl)cc(N4CC[C@@H](O)C4)cc2Cl)C3)cc1N1CCOCC1 [Compound 4-28, 4-[3-[2,6-Dichloro-4-[(3R)-3-hydroxypyrrolidin-1-yl]benzoyl]-2,4-dihydro-1,3-benzoxazin-8-yl]-5-fluoro-2-morpholin-4-ylbenzoic acid]
25 | 1.1 nM | COCC1CN(c2cc(Cl)c(C(=O)N3COc4c(cccc4-c4cc(N5CCOCC5)c(C(=O)O)cc4F)C3)c(Cl)c2)CCN1C (centres unmarked) [Compound 4-30, 4-[3-[2,6-Dichloro-4-[3-(methoxymethyl)-4-methylpiperazin-1-yl]benzoyl]-2,4-dihydro-1,3-benzoxazin-8-yl]-5-fluoro-2-morpholin-4-ylbenzoic acid]
26 | 1.2 nM | CN1CCN(c2cc(Cl)c(C(=O)N3COc4c(cccc4-c4cc(N5CCOCC5)c(C(=O)O)cc4F)C3)c(Cl)c2)CC12CC2 [Compound 4-31, 4-[3-[2,6-Dichloro-4-(4-methyl-4,7-diazaspiro[2.5]octan-7-yl)benzoyl]-2,4-dihydro-1,3-benzoxazin-8-yl]-5-fluoro-2-morpholin-4-ylbenzoic acid]
